Assay results as given in patent publication US20110319352A1, “Compounds That Bind Oxysterol Binding Proteins, and Methods of Use Thereof” (President and Fellows of Harvard College, priority 2008, published 2011).
Residues, ends and D or L forms follow the SMILES beside them. *: point of attachment. Cbz = O=C(OCc1ccccc1)*

Legend:
pERK1/2 in HCT-116 cells = assay: Western blot of pERK1/2; type: cell-based; details: cephalostatin 1 50 nM, 25-OHC 20 μM 12 h
Procedure: FIG. 21 depicts Western blot and densitometry analysis of pERK1/2 in HCT-116 cells during treatment with 50 nM cephalostatin 1. 25-OHC (20 μM) and okadaic acid (OKA, 10 nM) treatments were for 12 h and 24 h, respectively.
As another test of whether CRAMs perturb a known OSBP function, it was determined whether CRAMs induce changes to the phosphorylation state of ERK1/2. As mentioned above, 25-OHC binds OSBP and causes disruption of a complex between OSBP and the phosphatases HePTP and PP2A. This blocks dephosphorylation of pERK1/2, leading to a persistence of pERK1/2. Opposing this effect is cholesterol, which binds OSBP, inducing formation of the OSBP-HePTP-PP2A ternary complex, causing ERK1/2 dephosphorylation (FIG. 13).

[1] = test system: OSBP localization in HCT-116 p21+/+ cells; assay: OSBP localization by immunofluorescence confocal microscopy; type: cell-based; details: compound exposure 4 h (OSW-1 1 nM)
Procedure: FIG. 22 depicts OSBP localization in HCT-116 p21^+/+ cells imaged by immunofluorescence confocal microscopy. Immunofluorescence was used to image OSBP and the trans-Golgi protein p230 after compound exposure for 4 h. […] was labeled with Hoescht 33342.
As another way to investigate how CRAMs may affect OSBP, immunofluorescence (IF) experiments were performed in HCT-116 p21^+/+ cells to determine whether OSBP localization was altered upon treatment with different CRAMs. In untreated cells, OSBP resides largely at ER/cytoplasmic sites with a partial localization at the Golgi (FIG. 22A).
This translocation has been reported many times in the literature as an effect of 25-OHC on OSBP. Treatment of cells with OSW-1 at 1 nM for 4 h caused a dramatic and unprecedented effect on OSBP localization (FIG. 22C). […] In this case p230 has been dispersed (see […]). The translocation of OSBP induced by 2 is distinct from that of 25-OHC. […] They also reveal that the effects on OSBP translocation by 1 and 2 are distinct from 25-OHC.

OSBP protein levels = OSBP protein levels by western blot; type: cell-based
Procedure: One unanticipated discovery from the IF studies was that, after several hours, CRAM treatment of cells caused a significant reduction in the intensity of the OSBP fluorescent signal. This could mean that CRAMs are inducing a reduction in OSBP protein levels: an effect not observed with 25-OHC. The amount of OSBP protein in cells exposed to CRAMs was measured by western blot. […] Cephalostatin 1 induced a 70% reduction in OSBP at 12 h, and OSW-1 caused a 69% reduction in OSBP at 24 h. […] This supports a situation where reduction of OSBP levels by 1 and 2 is a result of a proteasome-dependent degradation process. One possible scenario is that 1 and 2 are also causing protein level reductions of ORPs and this is the source of cytotoxicity of CRAMs.

[2] = cytotoxicity of 25-OHC (cells not named); type: cell-based; details: doses up to 1000 times its OSBP Kd
HCT-116 p21−/− cells [3] = details: cited from earlier work
HCT-116 p21+/+ cells = details: literature value [6]; cited from earlier work
recombinant OSBP-myc-his = target: T1, recombinant OSBP-myc-his (Homo sapiens, UniProt P22059); assay: competitive binding assay, displacement of [3H]-25-OHC from OSBP (charcoal-dextran, liquid scintillation counting); details: for displacement of OSBP-bound [3H]-25-OHC: at low micromolar-concentrations
T1 construct: made in house; host or cells: HEK-293T (crude S100 lysate, not purified)
T1 sequence (P22059 1-807): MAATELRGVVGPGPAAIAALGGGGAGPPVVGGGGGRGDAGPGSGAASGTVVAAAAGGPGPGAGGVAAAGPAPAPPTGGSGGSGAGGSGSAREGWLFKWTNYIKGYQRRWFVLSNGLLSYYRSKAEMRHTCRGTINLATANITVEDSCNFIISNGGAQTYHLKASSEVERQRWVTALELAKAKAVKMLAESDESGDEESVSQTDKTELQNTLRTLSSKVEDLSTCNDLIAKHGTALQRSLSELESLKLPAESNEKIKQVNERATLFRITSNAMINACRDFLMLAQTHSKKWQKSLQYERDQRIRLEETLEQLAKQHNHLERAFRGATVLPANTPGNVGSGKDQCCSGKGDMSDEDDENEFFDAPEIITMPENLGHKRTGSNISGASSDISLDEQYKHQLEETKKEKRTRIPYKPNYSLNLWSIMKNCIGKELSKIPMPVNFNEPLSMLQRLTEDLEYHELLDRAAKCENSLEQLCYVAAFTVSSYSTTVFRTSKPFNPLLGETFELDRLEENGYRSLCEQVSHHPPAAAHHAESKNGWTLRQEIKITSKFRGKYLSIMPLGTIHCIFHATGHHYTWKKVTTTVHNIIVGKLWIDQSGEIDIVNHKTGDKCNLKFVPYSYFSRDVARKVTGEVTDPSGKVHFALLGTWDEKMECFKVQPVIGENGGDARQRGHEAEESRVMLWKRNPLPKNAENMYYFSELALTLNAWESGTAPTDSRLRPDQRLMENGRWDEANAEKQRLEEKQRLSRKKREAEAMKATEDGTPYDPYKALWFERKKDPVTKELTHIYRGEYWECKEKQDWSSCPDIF
Procedure: It has been determined that CRAMs inhibit the binding of radiolabelled 25-OHC ([^3H]-25-OHC) to recombinant OSBP-myc-his and ORP4-myc-his overexpressed in HEK-293T lysate (FIG. 18). It is known that 25-hydroxycholesterol is a high affinity ligand for OSBP and ORP4. Increasing concentrations of CRAMs or OSW-1 analogs were incubated with 20 nM [^3H]-25-OHC in OSBP-myc-his or ORP4-myc-his S100 lysate for 16 h at 4° C. after which unbound sterol was removed using charcoal-dextran and the bound sterol quantified by LCS (liquid scintillation counting).
These experiments provide evidence that CRAMs are ligands of OSBP and ORP4, and in the case of 1 and 2, they are high affinity ligands.
To measure the Kis of CRAMs to OSBP and ORP4 reported above, a previously reported dextran-coated charcoal assay was adapted into a 96-well format. […] To solve these limitations a binding SPA (scintillation proximity assay) for OSBP/ORPs (FIG. 26) will be developed.

HCT-116 p21−/− cells [4] = assay: growth inhibition of HCT-116 cells lacking p21 (p21 dependence); type: cell-based; details: for dependence of growth inhibition on p21 status: HCT-116 p21−/− versus p21+/+
Excerpt: Values are mean±SD of 3 individual experiments each performed in sextublicate or from a single experiment performed in sextublicate. Values for […] were reported in the literature (see Beutler J A, Shoemaker R H, Johnson T, Boyd M R. “Cytotoxic geranyl stilbenes from Macaranga schweinfurthii,” J. Nat. Prod. 1998, 61(12), 1509-12).
[5] […] This shared p21 differential cytotoxicity supports the idea of a common CRAM mechanism of action and likely similar target. […] However, caution has to be exercised in concluding that compounds found to be selective for p21 deficient HCT-116 cells are truly synthetic lethal with p21. It was recently reported that compounds shown to be hypersensitive to HCT-116 p21^−/− cells was actually due to an overexpression of p53 in that cell line. Subsequent siRNA knockdown of p53 eliminated the apparent p21 synthetic lethality.

[5] = test system: HCT-116 p21−/− shNT and shOSBP cells; assay: CRAM cytotoxicity after shRNA knockdown of OSBP, HCT-116 p21−/−; type: cell-based; details: HCT-116 p21−/−; for sensitization (GI50 shift) by OSBP knockdown: OSBP knockdown by 84%
Excerpt: FIG. 17 depicts CRAM cytotoxicity in shRNA OSBP knockdown cell lines. A: Dose curves from a representative experiment. B: GI50 values of CRAMs and control compounds in HCT-116 p21−/− shNT and shOSBP cells and densitometric analysis of OSBP-levels. shNT=non-targeting shRNA, shOSBP=OSBP-targeting shRNA; * P=0.0006 (n=4), ** P=0.0002 (n=3), *** P=0.0003 (n=3), and **** P≦0.0001 (n=7) compared to shNT-treated cells.
To determine whether the cytotoxicity of CRAMs depends on the amount of OSBP in cells, the effects of shRNA knockdown of OSBP on the growth inhibitory activity of CRAMs was measured. Treatment of HCT-116 p21^−/− cells with shRNA targeted to OSBP [24] caused an 84% reduction in the level of OSBP as measured by western blot (FIG. 17B, bottom right).

NCI-60 = details: read-out: GI50, average against the NCI-60; cited from earlier work
tumor xenograft = details: i.p. 9.3 mg/kg (Q2D×4); cited from earlier work

C[C@H](CCCC(C)(C)O)[C@H]1CC[C@H]2[C@@H]3CC=C4C[C@@H](O)CC[C@]4(C)[C@H]3CC[C@]12C [25-OHC, 25-hydroxycholesterol, reference compound]
pERK1/2 levels (pERK1/2 in HCT-116 cells): had the same effect as CRAMs
effect on OSBP localization [1]: OSBP translocates to the Golgi
effect on OSBP protein levels (OSBP protein levels): not observed
cytotoxicity [2]: not cytotoxic

CC(/C=C/C=C(C)/C=C/C=C(\C)C(=O)O)=C1/C(=O)C[C@H]2[C@@]3(C)CCC(=O)C(C)(C)[C@@H]3CC[C@]12C [(−)-stellettin E]
GI50 (HCT-116 p21−/− cells [3]; literature value [6]): 39 nM
more cytotoxic to HCT-116 p21−/− compared to parental HCT-116 (HCT-116 p21−/− cells [3]; ratio of GI50, literature): 117 times
more active in HCT-116 lacking the p21 protein (HCT-116 p21−/− cells [3]; reported in the literature): 117 fold
GI50 (HCT-116 p21+/+ cells): 4570 nM

C[C@@H]1[C@]2(O[C@H]3C=C4[C@@H]5CC[C@H]6Cc7nc8c(nc7C[C@]6(C)[C@H]5C[C@@H](O)[C@]4(C)[C@]31O)C[C@@H]1CC[C@H]3C4=CC[C@@H]5[C@H](C)[C@@]6(OC[C@]45C(=O)C[C@@H]3[C@@]1(C)C8)OC(C)(C)C[C@H]6O)O[C@](C)(CO)C[C@H]2O [Cephalostatin 1]
Ki (recombinant OSBP-myc-his; 20 nM [3H]-25-OHC, OSBP-myc-his S100 lysate (HEK-293T), 16 h at 4° C., read-out: Ki, displacing OSBP-bound [3H]-25-OHC): 50 nM
differential GI50, HCT-116 p21−/− versus p21+/+ (HCT-116 p21−/− cells [4]; 48 h (FIG. 14)): 44 fold
sensitization (GI50 shift) by OSBP knockdown [5]: 3.5 fold
pERK1/2 levels (pERK1/2 in HCT-116 cells): significant increase in pERK1/2 starting at 12 h and persisting for at least 24 h
effect on OSBP localization [1]: caused a significant amount of OSBP to co-localize with the plasma membrane
effect on OSBP protein levels (OSBP protein levels): time-dependent reduction in OSBP protein levels
reduction in OSBP (OSBP protein levels; at 12 h): 70%

CC(C)C[C@@H](C=O)NC(=O)[C@H](CC(C)C)NC(=O)[C@H](CC(C)C)NC(=O)OCc1ccccc1 [MG132, reference compound] (Cbz-Leu-Leu-Leu-aldehyde)
effect on OSBP protein levels (OSBP protein levels): complete rescue of OSBP levels

COc1cc(/C=C/c2cc(O)c(C/C=C(\C)CCC=C(C)C)c(O)c2)cc2c1O[C@]1(C)C[C@@H](O)[C@@H](O)C(C)(C)[C@H]1C2 [Schweinfurthin B, schweinfurthin B, reference compound]
effect on OSBP localization [1]: induced OSBP translocation, but in a manner similar to the 25-OHC effect

CC(C)C[C@H](NC(=O)[C@H](Cc1ccccc1)NC(=O)c1cnccn1)B(O)O [bortezomib, reference compound]
sensitization by OSBP knockdown [5]: does not sensitize

C[C@H]1CCC/C=C/[C@@H]2C[C@H](O)C[C@H]2[C@H](O)/C=C/C(=O)O1 [brefeldin A, reference compound]
sensitization by OSBP knockdown [5]: does not sensitize

CC(=O)O[C@H]1C(=O)[C@@]2(C)[C@H]([C@H](OC(=O)c3ccccc3)[C@]3(O)C[C@H](OC(=O)[C@H](O)[C@@H](NC(=O)c4ccccc4)c4ccccc4)C(C)=C1C3(C)C)[C@]1(OC(C)=O)CO[C@@H]1C[C@@H]2O [taxol, reference compound]
sensitization by OSBP knockdown [5]: does not sensitize

ritterazine B
displacement of OSBP-bound [3H]-25-OHC (recombinant OSBP-myc-his): displaced the bound ligand
dependence of growth inhibition on p21 status (HCT-116 p21−/− cells [4]): selectively growth inhibitory for HCT-116 cells lacking p21
sensitization by OSBP knockdown [5]: sensitized

schweinfurthin A
displacement of OSBP-bound [3H]-25-OHC (recombinant OSBP-myc-his): displaced the bound ligand
dependence of growth inhibition on p21 status (HCT-116 p21−/− cells [4]): selectively growth inhibitory for HCT-116 cells lacking p21
sensitization by OSBP knockdown [5]: sensitizes
sensitization (GI50 shift) by OSBP knockdown [5]: 8.9 fold
GI50 (NCI-60): 360 nM
toxicity in xenograft mice (tumor xenograft): without overt toxicity
tumor volume (tumor xenograft): reduction in tumor volume compared to vehicle-treated controls
